Reference: the NIST ThermoML archive (doi:10.1021/acs.jced.8b00554)
Numbers after ± are expanded uncertainties.

Tests used:
[1] = Liquid, Vibrating tube method
[2] = refractive index (Na D-line) (dimensionless); conditions: 293.15 K; 101.33 kPa; Liquid; Standard Abbe refractometry

Molecule `CCCO` [propan-1-ol] has a mass density ([1]; 313.15 K, 100 kPa) of 787.65 ± 4.7 kg/m3, a mass density ([1]; 313.15 K, 1020 kPa) of 788.65 ± 4.7 kg/m3 and a mass density ([1]; 313.15 K, 2000 kPa) of 789.51 ± 4.7 kg/m3. The mass density ([1]; 313.15 K, 3010 kPa) was 790.39 ± 4.7 kg/m3, the mass density ([1]; 313.15 K, 4020 kPa) was 791.23 ± 4.8 kg/m3 and the mass density ([1]; 313.15 K, 5020 kPa) was 792.09 ± 4.8 kg/m3. The mass density ([1]; 313.15 K, 6010 kPa) was 792.93 ± 4.8 kg/m3, the mass density ([1]; 313.15 K, 7020 kPa) was 793.75 ± 4.8 kg/m3 and the mass density ([1]; 313.15 K, 8030 kPa) was 794.57 ± 4.8 kg/m3. It also gave a mass density ([1]; 313.15 K, 9010 kPa) of 795.39 ± 4.8 kg/m3, a mass density ([1]; 313.15 K, 10020 kPa) of 796.2 ± 4.8 kg/m3 and a mass density ([1]; 313.15 K, 11010 kPa) of 796.99 ± 4.8 kg/m3. It also gave a mass density ([1]; 313.15 K, 12020 kPa) of 797.79 ± 4.8 kg/m3, a mass density ([1]; 313.15 K, 13010 kPa) of 798.57 ± 4.8 kg/m3 and a mass density ([1]; 313.15 K, 14020 kPa) of 799.35 ± 4.8 kg/m3. For the same molecule, the mass density ([1]; 313.15 K, 15030 kPa) was 800.12 ± 4.8 kg/m3, the mass density ([1]; 313.15 K, 16010 kPa) was 800.88 ± 4.8 kg/m3 and the mass density ([1]; 313.15 K, 17020 kPa) was 801.63 ± 4.8 kg/m3. The mass density ([1]; 313.15 K, 18010 kPa) was 802.39 ± 4.8 kg/m3, the mass density ([1]; 313.15 K, 19020 kPa) was 803.13 ± 4.8 kg/m3 and the mass density ([1]; 313.15 K, 20010 kPa) was 803.87 ± 4.8 kg/m3. It also gave a mass density ([1]; 323.15 K, 100 kPa) of 779.29 ± 4.7 kg/m3, a mass density ([1]; 323.15 K, 1020 kPa) of 780.33 ± 4.7 kg/m3 and a mass density ([1]; 323.15 K, 2020 kPa) of 781.26 ± 4.7 kg/m3. For the same molecule, the mass density ([1]; 323.15 K, 3010 kPa) was 782.17 ± 4.7 kg/m3, the mass density ([1]; 323.15 K, 4030 kPa) was 783.07 ± 4.7 kg/m3 and the mass density ([1]; 323.15 K, 5010 kPa) was 783.96 ± 4.7 kg/m3. For the same molecule, the mass density ([1]; 323.15 K, 6010 kPa) was 784.85 ± 4.7 kg/m3, the mass density ([1]; 323.15 K, 7000 kPa) was 785.72 ± 4.7 kg/m3 and the mass density ([1]; 323.15 K, 8010 kPa) was 786.58 ± 4.7 kg/m3. The mass density ([1]; 323.15 K, 9020 kPa) was 787.44 ± 4.7 kg/m3, the mass density ([1]; 323.15 K, 10030 kPa) was 788.29 ± 4.7 kg/m3 and the mass density ([1]; 323.15 K, 11020 kPa) was 789.12 ± 4.7 kg/m3. The mass density ([1]; 323.15 K, 12010 kPa) was 789.95 ± 4.7 kg/m3, the mass density ([1]; 323.15 K, 13020 kPa) was 790.78 ± 4.8 kg/m3 and the mass density ([1]; 323.15 K, 14030 kPa) was 791.59 ± 4.8 kg/m3. For the same molecule, the mass density ([1]; 323.15 K, 15030 kPa) was 792.41 ± 4.8 kg/m3, the mass density ([1]; 323.15 K, 16000 kPa) was 793.2 ± 4.8 kg/m3 and the mass density ([1]; 323.15 K, 17010 kPa) was 794 ± 4.8 kg/m3. For the same molecule, the mass density ([1]; 323.15 K, 18030 kPa) was 794.78 ± 4.8 kg/m3, the mass density ([1]; 323.15 K, 19030 kPa) was 795.56 ± 4.8 kg/m3 and the mass density ([1]; 323.15 K, 20020 kPa) was 796.33 ± 4.8 kg/m3. For the same molecule, the mass density ([1]; 333.15 K, 100 kPa) was 770.58 ± 4.6 kg/m3, the mass density ([1]; 333.15 K, 1030 kPa) was 771.74 ± 4.6 kg/m3 and the mass density ([1]; 333.15 K, 2020 kPa) was 772.72 ± 4.6 kg/m3. For the same molecule, the mass density ([1]; 333.15 K, 3020 kPa) was 773.69 ± 4.6 kg/m3, the mass density ([1]; 333.15 K, 4030 kPa) was 774.64 ± 4.7 kg/m3 and the mass density ([1]; 333.15 K, 5020 kPa) was 775.59 ± 4.7 kg/m3. The mass density ([1]; 333.15 K, 6020 kPa) was 776.52 ± 4.7 kg/m3, the mass density ([1]; 333.15 K, 7010 kPa) was 777.45 ± 4.7 kg/m3 and the mass density ([1]; 333.15 K, 8020 kPa) was 778.36 ± 4.7 kg/m3. The mass density ([1]; 333.15 K, 9010 kPa) was 779.27 ± 4.7 kg/m3, the mass density ([1]; 333.15 K, 10030 kPa) was 780.16 ± 4.7 kg/m3 and the mass density ([1]; 333.15 K, 11020 kPa) was 781.05 ± 4.7 kg/m3. The mass density ([1]; 333.15 K, 12030 kPa) was 781.93 ± 4.7 kg/m3, the mass density ([1]; 333.15 K, 13010 kPa) was 782.79 ± 4.7 kg/m3 and the mass density ([1]; 333.15 K, 14030 kPa) was 783.65 ± 4.7 kg/m3. The mass density ([1]; 333.15 K, 15030 kPa) was 784.5 ± 4.7 kg/m3, the mass density ([1]; 333.15 K, 16000 kPa) was 785.34 ± 4.7 kg/m3 and the mass density ([1]; 333.15 K, 17030 kPa) was 786.17 ± 4.7 kg/m3. It also gave a mass density ([1]; 333.15 K, 18010 kPa) of 787 ± 4.7 kg/m3, a mass density ([1]; 333.15 K, 19020 kPa) of 787.81 ± 4.7 kg/m3 and a mass density ([1]; 333.15 K, 20000 kPa) of 788.62 ± 4.7 kg/m3. It also gave a mass density ([1]; 343.15 K, 100 kPa) of 761.6 ± 4.6 kg/m3, a mass density ([1]; 343.15 K, 1010 kPa) of 762.86 ± 4.6 kg/m3 and a mass density ([1]; 343.15 K, 2020 kPa) of 763.91 ± 4.6 kg/m3. For the same molecule, the mass density ([1]; 343.15 K, 3000 kPa) was 764.93 ± 4.6 kg/m3, the mass density ([1]; 343.15 K, 4020 kPa) was 765.95 ± 4.6 kg/m3 and the mass density ([1]; 343.15 K, 5020 kPa) was 766.96 ± 4.6 kg/m3. For the same molecule, the mass density ([1]; 343.15 K, 6020 kPa) was 767.95 ± 4.6 kg/m3, the mass density ([1]; 343.15 K, 7030 kPa) was 768.93 ± 4.6 kg/m3 and the mass density ([1]; 343.15 K, 8020 kPa) was 769.91 ± 4.6 kg/m3. It also gave a mass density ([1]; 343.15 K, 9000 kPa) of 770.86 ± 4.6 kg/m3, a mass density ([1]; 343.15 K, 10020 kPa) of 771.81 ± 4.6 kg/m3 and a mass density ([1]; 343.15 K, 11030 kPa) of 772.74 ± 4.6 kg/m3. For the same molecule, the mass density ([1]; 343.15 K, 12020 kPa) was 773.67 ± 4.7 kg/m3, the mass density ([1]; 343.15 K, 13010 kPa) was 774.59 ± 4.7 kg/m3 and the mass density ([1]; 343.15 K, 14000 kPa) was 775.49 ± 4.7 kg/m3. For the same molecule, the mass density ([1]; 343.15 K, 15010 kPa) was 776.39 ± 4.7 kg/m3, the mass density ([1]; 343.15 K, 16020 kPa) was 777.28 ± 4.7 kg/m3 and the mass density ([1]; 343.15 K, 17020 kPa) was 778.16 ± 4.7 kg/m3. It also gave a mass density ([1]; 343.15 K, 18000 kPa) of 779.02 ± 4.7 kg/m3, a mass density ([1]; 343.15 K, 19020 kPa) of 779.89 ± 4.7 kg/m3 and a mass density ([1]; 343.15 K, 20010 kPa) of 780.74 ± 4.7 kg/m3. For the same molecule, the mass density ([1]; 353.15 K, 100 kPa) was 752.39 ± 4.5 kg/m3, the mass density ([1]; 353.15 K, 1010 kPa) was 753.65 ± 4.5 kg/m3 and the mass density ([1]; 353.15 K, 2010 kPa) was 754.76 ± 4.5 kg/m3. The mass density ([1]; 353.15 K, 2990 kPa) was 755.86 ± 4.5 kg/m3, the mass density ([1]; 353.15 K, 4000 kPa) was 756.96 ± 4.5 kg/m3 and the mass density ([1]; 353.15 K, 5000 kPa) was 758.04 ± 4.5 kg/m3. The mass density ([1]; 353.15 K, 6000 kPa) was 759.1 ± 4.6 kg/m3, the mass density ([1]; 353.15 K, 7010 kPa) was 760.14 ± 4.6 kg/m3 and the mass density ([1]; 353.15 K, 7990 kPa) was 761.16 ± 4.6 kg/m3. The mass density ([1]; 353.15 K, 8990 kPa) was 762.2 ± 4.6 kg/m3, the mass density ([1]; 353.15 K, 9990 kPa) was 763.21 ± 4.6 kg/m3 and the mass density ([1]; 353.15 K, 11010 kPa) was 764.2 ± 4.6 kg/m3. The mass density ([1]; 353.15 K, 12010 kPa) was 765.19 ± 4.6 kg/m3, the mass density ([1]; 353.15 K, 13000 kPa) was 766.16 ± 4.6 kg/m3 and the mass density ([1]; 353.15 K, 14010 kPa) was 767.13 ± 4.6 kg/m3. The mass density ([1]; 353.15 K, 15010 kPa) was 768.07 ± 4.6 kg/m3, the mass density ([1]; 353.15 K, 16010 kPa) was 769.01 ± 4.6 kg/m3 and the mass density ([1]; 353.15 K, 17010 kPa) was 769.94 ± 4.6 kg/m3. The mass density ([1]; 353.15 K, 17990 kPa) was 770.86 ± 4.6 kg/m3, the mass density ([1]; 353.15 K, 18990 kPa) was 771.76 ± 4.6 kg/m3 and the mass density ([1]; 353.15 K, 19990 kPa) was 772.67 ± 4.6 kg/m3. For the same molecule, the mass density ([1]; 363.15 K, 100 kPa) was 743.01 ± 4.5 kg/m3, the mass density ([1]; 363.15 K, 1020 kPa) was 744.08 ± 4.5 kg/m3 and the mass density ([1]; 363.15 K, 2030 kPa) was 745.28 ± 4.5 kg/m3. The mass density ([1]; 363.15 K, 3030 kPa) was 746.48 ± 4.5 kg/m3, the mass density ([1]; 363.15 K, 4020 kPa) was 747.65 ± 4.5 kg/m3 and the mass density ([1]; 363.15 K, 5000 kPa) was 748.81 ± 4.5 kg/m3. For the same molecule, the mass density ([1]; 363.15 K, 6020 kPa) was 749.94 ± 4.5 kg/m3, the mass density ([1]; 363.15 K, 7020 kPa) was 751.07 ± 4.5 kg/m3 and the mass density ([1]; 363.15 K, 8010 kPa) was 752.18 ± 4.5 kg/m3. For the same molecule, the mass density ([1]; 363.15 K, 9000 kPa) was 753.27 ± 4.5 kg/m3, the mass density ([1]; 363.15 K, 10030 kPa) was 754.35 ± 4.5 kg/m3 and the mass density ([1]; 363.15 K, 11010 kPa) was 755.41 ± 4.5 kg/m3. For the same molecule, the mass density ([1]; 363.15 K, 12010 kPa) was 756.47 ± 4.5 kg/m3, the mass density ([1]; 363.15 K, 13010 kPa) was 757.5 ± 4.5 kg/m3 and the mass density ([1]; 363.15 K, 14000 kPa) was 758.53 ± 4.6 kg/m3. It also gave a mass density ([1]; 363.15 K, 15020 kPa) of 759.54 ± 4.6 kg/m3, a mass density ([1]; 363.15 K, 16010 kPa) of 760.54 ± 4.6 kg/m3 and a mass density ([1]; 363.15 K, 17030 kPa) of 761.52 ± 4.6 kg/m3. The mass density ([1]; 363.15 K, 18010 kPa) was 762.51 ± 4.6 kg/m3, the mass density ([1]; 363.15 K, 19000 kPa) was 763.47 ± 4.6 kg/m3 and the mass density ([1]; 363.15 K, 20020 kPa) was 764.42 ± 4.6 kg/m3. It also gave a refractive index [2] of 1.3852 ± 0.004.
